According to patent publication US12285428B2 (IMBRIA PHARMACEUTICALS, INC., priority 2021, dated 2025):

Experiments:
[1] = FIH study, all parts combined: plasma PK; assay type: in vivo, human; conditions: all blood samples of subjects that received IMB-1018972
From the text: The study started with the SAD part.

healthy subjects [2] = assay: FIH study, SAD part (and integrated FE arm): safety and tolerability
Experimental: In Groups A1, A2, A3, and A4, subjects received a single oral dose of an IR formulation of IMB-1018972 or placebo under fasted conditions (an overnight fast of at least 10 hours). […] Each subject participated in only 1 group during the study.
(§1) AEs were recorded from (first) admission until completion of the follow-up visit. Any clinically significant observations in results of clinical laboratory, 12-lead ECGs, vital signs, or physical examinations were recorded as AEs.
(§2) A treatment-emergent AE (TEAE) was defined as any event not present prior to (the first) administration of the study drug or any event already present that worsened in either severity or frequency following exposure to the study drug.
(§3) At several time points before and after drug administration, subjects were asked nonleading questions to determine the occurrence of AEs. Subjects were asked in general terms about any AEs at regular intervals during the study. In addition, all AEs reported spontaneously during the course of the study were recorded. Details included description of the event, date and time of onset, date and time of end, total duration, severity, relationship to study drug, intervention, seriousness, and outcome. All answers were interpreted by the Investigator and were recorded in the eCRF. All AEs were classified according to the Medical Dictionary for Regulatory Activities (MedDRA; Version 22.0) for AEs.
(§4) The severity of the AEs was rated as mild, moderate, or severe; the relationship between the AEs and the study drug was indicated as none, unlikely, possibly, likely, or definitely. Adverse events assessed as possibly, likely, or definitely were considered related to the study drug; AEs assessed as none or unlikely were considered not related to the study drug.
The following parameters were measured: • Clinical chemistry (serum quantitatively): total bilirubin, alkaline phosphatase, gamma glutamyl transferase, aspartate aminotransferase (AST), alanine aminotransferase (ALT), lactate dehydrogenase, creatinine, urea, total protein, glucose, inorganic phosphate, sodium, potassium, • calcium, and chloride • Hematology (blood quantitatively): leukocytes, erythrocytes, hemoglobin, hematocrit, thrombocytes, partial automated differentiation (lymphocytes, monocytes, eosinophils, basophils, and neutrophils), mean corpuscular volume, mean corpuscular hemoglobin, and mean corpuscular hemoglobin concentration • Coagulation (blood quantitatively): prothrombin time (reported in seconds and as international normalized ratio), activated partial thromboplastin time, and fibrinogen • Urinalysis (urine qualitatively): hemoglobin, urobilinogen, ketones, glucose, and protein • Serology: HBsAg, anti-HCV, and anti-HIV 1 and 2 • Drug and alcohol screen: opiates, methadone, cocaine, amphetamines (including ecstasy), cannabinoids, barbiturates, benzodiazepines, tricyclic antidepressants, and alcohol • Pregnancy test (females only): (3-human chorionic gonadotropin in serum
Systolic and diastolic blood pressure and pulse were recorded after the subject had been resting for at least 5 minutes in the supine position. These assessments were made using an automated device. Body temperature and respiratory rate were measured subsequently.
The ECG was recorded using an ECG machine equipped with computer-based interval measurements (with no/minimal disturbance by procedures). The following ECG parameters were recorded: heart rate, PR-interval, QRS-duration, QT-interval, QTcF-interval, and the interpretation of the ECG profile by the Investigator.
In the SAD part (not in the second period of the FE group A4, and not in Group A5), a 12-lead ECG was recorded continuously by telemetry from 2 hours before to 24 hours after drug administration on Day 1.

dog = assay: 28-day dog study (nonclinical toxicology: NOAEL and exposure); conditions: in vivo
Experimental: Based on the nonclinical toxicology data, it was considered that subjects in this clinical study were not at unreasonable risk of adverse effects. […] For a 60-kg individual, the NOAEL dose would be 6480 mg. With a 10-fold safety factor applied, this would allow for a maximum recommended starting dose (MRSD) of 648 mg/day.7,8 The planned starting dose in the current Phase 1 study was 50 mg, equivalent to 0.83 mg/kg/day for a 60-kg subject. This starting dose is less than 10% of the MRSD determined from the dog NOAEL and less than 1% of the dog NOAEL
The relevant animal study was the 28-day dog study where the NOAEL for IMB-1018972 was 200 mg/kg/day.

[3] = tested on: patients with stable angina; assay: Blinded, randomized, controlled Phase 2 study IMB101-006 […]: spontaneously reported renal and urinary findings; assay type: in vivo, human; conditions: 200 mg MR BID for 8 weeks, blinded (N=22)
Experimental: In the early Phase 1 study in healthy volunteers and early Phase 2 studies in patients, there were instances of increased urine volume and increased urinary frequency spontaneously reported. • In the first-in-man study, CIMB8972-101, healthy volunteers were dosed with single doses of IMB-1018972 at 50 mg or 200 mg of the modified release (MR) formulation. Two of 12 subjects [2/12] (16.7%) reported 5 events of pollakiuria at both doses. • In an open label Phase 2 study (IMB101-005 DICE) treating patients with Type 2 Diabetes mellitus and obesity for 8 weeks with 200 mg MR BID, two of 22 patients [2/22] (9.1%) spontaneously reported renal and urinary findings. One patient reported pollakiuria and one patient reported increased nocturnal urinary frequency. • In a blinded, randomized, controlled, Phase 2 study (IMB101-006 […]) treating patients with stable angina for 8 weeks with 200 mg MR BID, one of 22 patients [1/22] (4.5%) spontaneously reported renal and urinary findings. One patient reported polyuria.

healthy subjects [4] = assay: FIH study, MAD part: safety and tolerability; assay type: in vivo, human
Experimental: Subjects received multiple oral doses of an IR formulation of IMB-1018972 or placebo once every 12 hours (q12h) for 14 consecutive days. Each subject participated in only 1 group during the study.
The doses were selected based upon the safety, tolerability, and PK data from the SAD part: • Group B1 multiple oral doses of an IR formulation of 150 mg IMB-1018972 (n=9) or matching placebo (n=3) twice daily (q12h) for 14 days; on Day 14 only a single morning dose was administered • Group B2: multiple oral doses of an IR formulation of 50 mg IMB-1018972 (n=9) or matching placebo (n=3) q12h for 14 days; on Day 14 only a single morning dose was administered
as §1, §2, §3, §4
In the MAD part, a 12-lead ECG was recorded continuously by telemetry from 2 hours before to 12 hours after drug administration on Day 1, and from 2 hours before to 24 hours after drug administration on Day 14.

[5] = 150 mg IMB-1018972 fasted (fasted-fed group)
[6] = 150 mg IMB-1018972 fed (fasted-fed group)
[7] = SAD part, all IMB-1018972 doses (N=24)

## COc1ccc(CN2CCN(CCOC(=O)c3cccnc3)CC2)c(OC)c1OC [IMB-1018972, 2-[4-[(2,3,4-trimethoxyphenyl)methyl]piperazin-1-yl]ethyl pyridine-3-carboxylate]
[1]
  IMB-1018972 in plasma: could be measured in only few plasma samples
Healthy subjects [2]; 50 mg IMB-1018972 fasted
  Number of TEAEs: 3
  Subjects reporting TEAEs: 50.0%
Healthy subjects [2]; 150 mg IMB-1018972 fasted
  Number of TEAEs: 5
  Subjects reporting TEAEs: 50.0%
Healthy subjects [2]; [5]
  Number of TEAEs: 17
  Subjects reporting TEAEs: 66.7%
Healthy subjects [2]; [6]
  Number of TEAEs: 4
  Subjects reporting TEAEs: 20%
Healthy subjects [2]; 400 mg IMB-1018972 fasted
  Number of TEAEs: 16
  Subjects reporting TEAEs: 100%
Healthy subjects [2]; FE arm of the SAD part, 150 mg
  Effect of dosing under fed conditions on number and incidence of TEAEs: appeared to attenuate
Healthy subjects [2]; SAD part
  Severe TEAEs: No severe TEAEs
Healthy subjects [2]; SAD part, IMB-1018972
  Number of TEAEs of flushing: 6
  Number of TEAEs of flushing of mild severity: 1
  Number of TEAEs of flushing of moderate severity: 5
Healthy subjects [2]; SAD part, IMB-1018972 (N=24)
  Number of TEAEs considered related to the study drug: 21
  Number of TEAEs, SOC gastrointestinal disorders: 9
  Number of TEAEs, SOC general disorders and administration site conditions: 9
  Number of TEAEs, SOC nervous system disorders: 9
  Number of TEAEs, SOC skin and subcutaneous tissue disorders: 4
  Number of TEAEs, SOC vascular disorders: 7
  Number of drug-related TEAEs, nervous system disorders: 5
  Number of drug-related TEAEs, vascular disorders (flushing): 6
  Subjects reporting TEAEs considered related to the study drug: 29.2%
  Subjects reporting TEAEs, SOC gastrointestinal disorders: 16.7%
  Subjects reporting TEAEs, SOC general disorders and administration site conditions: 20.8%
  Subjects reporting TEAEs, SOC nervous system disorders: 29.2%
  Subjects reporting TEAEs, SOC skin and subcutaneous tissue disorders: 16.7%
  Subjects reporting TEAEs, SOC vascular disorders: 29.2%
  Subjects reporting drug-related TEAEs, nervous system disorders: 16.7%
  Subjects reporting drug-related TEAEs, vascular disorders (flushing): 25%
Healthy subjects [2]; [7]
  Number of TEAEs: 45
  Subjects reporting TEAEs: 66.7%
Healthy subjects [2]; SAD part, of 48 TEAEs with IMB-1018972 or placebo
  Number of TEAEs of moderate severity: 11
Healthy subjects [2]; following 50 mg and 150 mg (fasted only group) IMB-1018972
  Drug-related TEAEs: No drug-related TEAEs
Healthy subjects [2]; single 150 mg IMB-1018972, fasted, FE arm
  Subjects who reported flushing: 2 subjects
Healthy subjects [2]; single 400 mg IMB-1018972, fasted
  Subjects who reported flushing: Four
Healthy subjects [2]; single oral IMB-1018972 50, 150, 400 mg fasted and 150 mg fed
  Tolerability: well tolerated
dog
  NOAEL dose for a 60-kg individual (HED): 6480 mg
dog; 28 days
  Maximum recommended starting dose (MRSD), 10-fold safety factor: 648 mg/day
[3]
  Patients reporting polyuria: One
  Patients spontaneously reporting renal and urinary findings: 4.5%
Healthy subjects [4]; 50 mg IMB-1018972 q12h
  TEAEs of flushing: No TEAEs of flushing
Healthy subjects [4]; 50 mg IMB-1018972 q12h fed
  Number of TEAEs: 21
  Subjects reporting TEAEs: 77.8%
Healthy subjects [4]; 150 mg IMB-1018972 q12h
  Number of TEAEs of flushing (incidental, mild): 7
  Subjects with TEAEs of flushing: 6 subjects
Healthy subjects [4]; 150 mg IMB-1018972 q12h fed
  Number of TEAEs: 14
  Subjects reporting TEAEs: 77.8%
Healthy subjects [4]; 14-day oral q12h 50 mg and 150 mg IMB-1018972, fed
  Tolerability: well tolerated
Healthy subjects [4]; MAD part
  Severity of all TEAEs: mild
Healthy subjects [4]; MAD part, IMB-1018972 (N=18)
  Number of TEAEs considered not related to the study drug: 28
  Number of TEAEs, SOC general disorders and administration site conditions: 7
